# Measured values taken from article PMC6531005 (Science Advances, 2019).
# pIC50: −log10 of the molar value.
# How the values were obtained:
# Type in all cases: biochemical
# CDC7 kinase = CDC7 kinase (Homo sapiens, UniProt O00311); assay: TR-FRET
# CDK2 kinase = CDK2 kinase (Homo sapiens, UniProt P24941); assay: enzymatic kinase inhibition assay, CDK2/cyclin E
# CDK9 = CDK9 (Homo sapiens, UniProt P50750); assay: SelectScreen kinase selectivity panel
# Sequence of CDK9 (P50750 whole entry): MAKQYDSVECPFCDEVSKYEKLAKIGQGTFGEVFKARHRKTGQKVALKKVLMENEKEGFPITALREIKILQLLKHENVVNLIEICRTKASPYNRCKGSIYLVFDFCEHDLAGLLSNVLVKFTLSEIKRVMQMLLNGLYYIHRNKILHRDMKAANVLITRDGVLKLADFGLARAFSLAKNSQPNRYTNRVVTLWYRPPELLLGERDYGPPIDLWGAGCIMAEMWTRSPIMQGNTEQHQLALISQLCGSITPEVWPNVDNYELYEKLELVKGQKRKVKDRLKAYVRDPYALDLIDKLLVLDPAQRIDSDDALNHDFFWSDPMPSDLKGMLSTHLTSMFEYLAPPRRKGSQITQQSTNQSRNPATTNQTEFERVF
# Sequence of CDC7 kinase (O00311 whole entry): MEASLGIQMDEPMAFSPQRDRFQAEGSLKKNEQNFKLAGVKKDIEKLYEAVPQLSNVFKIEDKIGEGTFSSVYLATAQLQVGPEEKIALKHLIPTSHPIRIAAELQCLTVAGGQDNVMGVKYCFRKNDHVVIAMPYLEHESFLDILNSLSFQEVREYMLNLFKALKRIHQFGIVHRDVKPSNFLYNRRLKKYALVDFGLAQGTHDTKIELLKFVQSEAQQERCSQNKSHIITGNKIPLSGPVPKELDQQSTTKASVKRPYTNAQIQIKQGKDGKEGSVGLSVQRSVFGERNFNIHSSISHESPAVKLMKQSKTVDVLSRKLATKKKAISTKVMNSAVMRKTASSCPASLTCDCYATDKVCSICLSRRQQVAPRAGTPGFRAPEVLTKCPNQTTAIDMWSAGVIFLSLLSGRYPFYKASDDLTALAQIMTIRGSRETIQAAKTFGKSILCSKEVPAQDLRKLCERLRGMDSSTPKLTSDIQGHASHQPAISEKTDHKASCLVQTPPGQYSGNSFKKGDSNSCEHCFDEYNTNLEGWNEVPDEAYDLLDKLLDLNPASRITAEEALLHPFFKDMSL
# Sequence of CDC7 kinase (Q9UBU7 whole entry partner): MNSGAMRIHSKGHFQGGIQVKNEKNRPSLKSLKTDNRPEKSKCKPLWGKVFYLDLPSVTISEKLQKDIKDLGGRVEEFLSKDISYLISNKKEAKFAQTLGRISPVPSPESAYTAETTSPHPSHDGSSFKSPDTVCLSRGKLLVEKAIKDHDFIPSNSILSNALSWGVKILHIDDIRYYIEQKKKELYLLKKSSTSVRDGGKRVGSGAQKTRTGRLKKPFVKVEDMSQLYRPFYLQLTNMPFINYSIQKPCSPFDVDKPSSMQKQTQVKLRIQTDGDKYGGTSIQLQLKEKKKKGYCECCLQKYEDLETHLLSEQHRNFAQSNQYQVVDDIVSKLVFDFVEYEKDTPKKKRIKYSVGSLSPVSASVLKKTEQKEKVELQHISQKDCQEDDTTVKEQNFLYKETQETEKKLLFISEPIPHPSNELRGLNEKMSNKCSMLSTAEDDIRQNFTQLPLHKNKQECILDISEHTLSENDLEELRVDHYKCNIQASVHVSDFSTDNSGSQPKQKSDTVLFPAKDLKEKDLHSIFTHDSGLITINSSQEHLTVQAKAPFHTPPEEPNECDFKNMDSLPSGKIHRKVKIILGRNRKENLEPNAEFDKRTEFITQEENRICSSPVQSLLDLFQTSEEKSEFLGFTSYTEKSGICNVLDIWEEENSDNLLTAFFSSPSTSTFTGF
compound,measurement,setting,value
"Cc1n[nH]cc1-c1cc2nc([C@@H]3CC4CCN3CC4)[nH]c(=O)c2s1 [TAK-931, 2-[(2S)-1-azabicyclo[2.2.2]oct-2-yl]-6-(3-methyl-1H-pyrazol-4-yl)thieno[3,2-d]pyrimidin-4(3H)-one hemihydrate]",pIC50,CDC7 kinase,> 9.52
same,pIC50,CDK2 kinase,5.20
same,SelectScreen kinase selectivity panel (fig. S1B),CDK9,"CDK9, which is the second high-affinity target of TAK-931 (fig. S1B)"
